Source: patent US7230033B2, “Pest control compositions and methods for their use” (United States of America as represented by the Secretary of …, priority 2000, dated 2007)

How the values were obtained:
[1] = tested on: Culex p. pipiens; experiment: Mosquito susceptibility, serial dilutions (Example 8); details: in vivo
[2] = tested on: Aedes aegypti adults; experiment: Residual activity, aged treated bottles, mosquitoes; format: in vivo
Method: Adult mosquitoes were tested using the bottle bioassay method of Brogden and McAllister (J. Am. Mosq. Control Assoc., 14:159–64, 1998) with minor modifications. Natural product extracts were two-fold serially diluted for a total of 8 concentrations ranging from 0.002% to 0.25% in 1.5 ml of acetone. Individual dilutions were added to 250 ml Wheaton glass bottles and capped. Bottles were manipulated to evenly coat all inner surfaces. The caps were removed and bottles were allowed to air-dry overnight. Once bottles were completely dry, 10–50 (in some tests 25–50) adult mosquitoes were aspirated into the bottles. Mosquitoes were held in the bottles for 24 h at 23° C. and 85% RH. Morbidity and mortality were recorded at 15, 30, 45, and 60 min and 24 hour intervals. One bottle for each replicate was treated with acetone only and served as a control. The dose-mortality data was evaluated with probit analysis, using the LdP Line software, to determine LC50 and LC90 values.

[3] = tested on: ticks, fleas, and mosquitoes; experiment: Residual activity, general statements (Examples 9, 17); format: in vivo; details: ticks
[4] = tested on: adult Xenopsylla cheopis fleas; experiment: Treated-vial biocidal screening with 2% acetone solutions (Example 2), adult fleas, residual; format: in vivo; details: treated vials sat 5 wk; arthropods added for the final 24 h
Method: (§1) Samples of the compounds listed below were obtained as described in Example 1, and screened for biocidal activities against nymphal Ixodes scapularis. In this example, 2% acetone solutions (wt/vol) of the compounds were applied to inner surfaces of 2-dram friction cap vials. Vials and caps were treated then allowed to dry for a minimum of 4 hours before placing 10 nymphs in each container. These same vials were used to challenge additional nymphs and adult I. scapularis ticks and adult Xenopsylla cheopis fleas through five weeks to observe any possible residual activity.
(§2) Numbers in parentheses refer to length of treatment in terms of hours (h) or weeks (wk). Data is presented in terms of number killed/number tested. For test periods longer than 24 hours, the treated vials were allowed to sit for the stated period after drying (72 h, 4 wk, or 5 wk) and each group of arthropods was added to the vials for the final 24 h of the test period.

[5] = tested on: Ae. aegypti adults; experiment: Adult mosquito bottle bioassay; format: in vivo, Aedes aegypti
[6] = tested on: Aedes aegypti; experiment: Mosquito susceptibility, serial dilutions (Example 8); details: in vivo
[7] = tested on: adult I. scapularis ticks; experiment: Treated-vial biocidal screening with 2% acetone solutions (Example 2), adult ticks, residual; format: in vivo, Ixodes scapularis; details: treated vials sat 4 wk; arthropods added for the final 24 h
Method: as §1, §2

[8] = tested on: X. cheopis adults; experiment: Flea bioassay, treated 2-dram vials, probit analysis; format: in vivo, Xenopsylla cheopis; details: 24 h exposure
[9] = tested on: Ixodes scapularis nymphal ticks; experiment: Tick repellency bioassay; format: in vivo; details: listed as Nootkatone (Compound 7)
[10] = tested on: nymphal Ixodes scapularis; experiment: Treated-vial biocidal screening with 2% acetone solutions (Example 2), tick nymphs; format: in vivo; details: treated vials sat 72 h; arthropods added for the final 24 h
Method: as §1, §2

[11] = tested on: fourth-instar Aedes aegypti larvae; experiment: Larval mosquito bioassay; format: in vivo; details: Aedes aegypti larval mosquitoes; concentration of the 1 ml added to 150 ml water
Method: Individual groups of 10 fourth-instar Aedes aegypti larvae were contained in 150 ml of water and exposed to […] of essential oils prepared by 2-fold serial dilutions ranging from 0.06%–5.0% in 1 ml of acetone. A control group of larvae were exposed to 1 ml of acetone only.
It is important to note that larval mosquitoes are tested in their natural environment, i.e., in water. The particular assays used herein involved groups of 10 larval mosquitoes in 150 ml of water. The weight percentages reported for lethal concentration for larval mosquitoes are the weight percentages added to the 150 ml water (as opposed to the final percentage of the tested compound(s) in the 150 ml water). As one of skill in the art will appreciate, test compound(s) added to a volume of water (such as, 150 ml) can be dramatically diluted depending upon the water solubility of the tested compound. […] If the tested compound is an oil (such as, carvacrol, nootkatone, or 13-hydroxy-valencene), it most likely floats on the surface of the water.

[12] = Aedes aegypti adult mosquitoes, alone, or 1:1 with carvacrol (in parenthesis)
[13] = 1 h after compound applied to applicator
[14] = 4 h after compound applied to applicator

C=C(C)[C@@H]1CCC2=CC(=O)C[C@@H](C)[C@]2(C)C1 [Compound 7, Nootkatone]
C. pipiens. LD50 [1]: <4.5 × 10^−3
LC90, residual activity ([2]; 1 week after treatment): 0.054 percent concentration, wt:vol
Slope, residual activity ([2]; 1 week after treatment): 3.043
Slope, residual activity ([2]; 2 weeks after treatment): 3.342
LC90, residual activity ([2]; 2 weeks after treatment, NE = not effective): 0.046 percent concentration, wt:vol
Slope, residual activity ([2]; 4 weeks after treatment): 2.698
LC90, residual activity ([2]; 4 weeks after treatment, NE = not effective): 0.038 percent concentration, wt:vol
residual activity [3]: considerable biological activity through the four week time period
X. cheopis adults (5 wk), number killed/number tested [4]: 5/5
LC90 ([5]; 24 h exposure, NE = not effective at concentrations tested): 0.0092 percent concentration, wt:vol
Slope ([5]; 24 h exposure, probit): 6.22
LC50 (15 min) [5, 12]: 0.035 % (wt:vol)
LC50 (24 h) [5, 12]: 0.0057 % (wt:vol)
LC90 (15 min) [5, 12]: 0.119 % (wt:vol)
LC90 (24 h) [5, 12]: 0.0092 % (wt:vol)
LC50 (15 min) ([5]; Aedes aegypti adult mosquitoes, alone, or 1:1 with carvacrol (in parenthesis), listed as compound 7): 0.035 % (wt:vol)
A. aegypti LD50 [6]: <4.5 × 10^−3
I. scapularis adults (4 wk), number killed/number tested [7]: 5/5
LC90 ([8]; NE = not effective at concentrations tested): 0.019 percent concentration, wt:vol
Slope ([8]; probit): 3.527
Slope (±SEM) ([9]; 1 h): 1.288 (±0.275)
RD50 [9, 13]: 0.186 % (wt:vol)
RD95 [9, 13]: 3.514 % (wt:vol)
Slope (±SEM) ([9]; 4 h): 1.291 (±0.277)
RD50 [9, 14]: 0.177 % (wt:vol)
RD95 [9, 14]: 3.319 % (wt:vol)
I. scapularis nymphs (72 h), number killed/number tested [10]: 5/5
LC50 (1 h) [11]: 5.327 % (wt:vol)
LC50 (24 h) [11]: 1.605 % (wt:vol)
LC90 (1 hr) [11]: 14.045 % (wt:vol)
LC90 (24 h) [11]: 2.59 % (wt:vol)
